Broadly, the IC50 is the concentration that inhibits the measured activity by half. High values mean lower potency, low ones higher potency.

The text below walks through data of ChEMBL document CHEMBL2062454, “SAR studies around a series of triazolopyridines as potent and selective PI3Kγ inhibitors” (Bioorg Med Chem Lett, 2012).

The target of assay [1] is Phosphatidylinositol 4,5-bisphosphate 3-kinase catalytic subunit gamma isoform (Homo sapiens, UniProt P48736). The assay is described as follows: Inhibition of PI3Kgamma by high throughput chemoproteomics binding assay.
Sequence of Phosphatidylinositol 4,5-bisphosphate 3-kinase catalytic subunit gamma isoform (P48736 whole entry, canonical isoform): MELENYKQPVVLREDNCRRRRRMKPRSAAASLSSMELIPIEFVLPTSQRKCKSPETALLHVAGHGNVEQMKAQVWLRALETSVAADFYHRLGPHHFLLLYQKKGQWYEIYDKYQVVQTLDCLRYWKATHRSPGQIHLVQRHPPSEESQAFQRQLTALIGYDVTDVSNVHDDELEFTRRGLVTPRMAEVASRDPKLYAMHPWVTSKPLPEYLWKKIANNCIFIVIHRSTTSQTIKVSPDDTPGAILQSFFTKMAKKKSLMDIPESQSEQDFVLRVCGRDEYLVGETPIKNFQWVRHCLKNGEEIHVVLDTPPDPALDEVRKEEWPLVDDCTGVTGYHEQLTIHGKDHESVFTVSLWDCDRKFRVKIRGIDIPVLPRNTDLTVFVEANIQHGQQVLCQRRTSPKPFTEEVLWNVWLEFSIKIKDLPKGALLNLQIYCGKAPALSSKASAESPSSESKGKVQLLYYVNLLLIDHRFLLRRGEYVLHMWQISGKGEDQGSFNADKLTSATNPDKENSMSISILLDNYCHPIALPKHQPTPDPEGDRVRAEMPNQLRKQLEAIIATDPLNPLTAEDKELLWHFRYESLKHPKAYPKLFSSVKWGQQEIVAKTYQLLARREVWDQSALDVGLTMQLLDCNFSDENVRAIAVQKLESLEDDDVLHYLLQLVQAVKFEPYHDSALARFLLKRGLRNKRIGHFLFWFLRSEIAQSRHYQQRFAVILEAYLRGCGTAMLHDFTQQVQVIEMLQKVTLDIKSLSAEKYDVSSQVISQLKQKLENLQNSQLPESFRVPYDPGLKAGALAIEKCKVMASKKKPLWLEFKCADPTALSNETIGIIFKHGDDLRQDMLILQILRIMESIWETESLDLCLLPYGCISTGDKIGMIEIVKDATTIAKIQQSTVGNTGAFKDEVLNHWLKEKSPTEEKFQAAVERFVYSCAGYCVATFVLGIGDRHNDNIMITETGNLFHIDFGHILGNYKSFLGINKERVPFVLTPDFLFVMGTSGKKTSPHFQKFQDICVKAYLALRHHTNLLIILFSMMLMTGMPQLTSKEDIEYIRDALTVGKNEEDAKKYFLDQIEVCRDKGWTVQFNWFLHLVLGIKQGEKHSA
For assay [2], the target named is Phosphatidylinositol 4,5-bisphosphate 3-kinase catalytic subunit alpha isoform (Homo sapiens, UniProt P42336). The assay can be described thus: Inhibition of PI3Kalpha by high throughput chemoproteomics binding assay.
Sequence of Phosphatidylinositol 4,5-bisphosphate 3-kinase catalytic subunit alpha isoform (P42336 whole entry, canonical isoform): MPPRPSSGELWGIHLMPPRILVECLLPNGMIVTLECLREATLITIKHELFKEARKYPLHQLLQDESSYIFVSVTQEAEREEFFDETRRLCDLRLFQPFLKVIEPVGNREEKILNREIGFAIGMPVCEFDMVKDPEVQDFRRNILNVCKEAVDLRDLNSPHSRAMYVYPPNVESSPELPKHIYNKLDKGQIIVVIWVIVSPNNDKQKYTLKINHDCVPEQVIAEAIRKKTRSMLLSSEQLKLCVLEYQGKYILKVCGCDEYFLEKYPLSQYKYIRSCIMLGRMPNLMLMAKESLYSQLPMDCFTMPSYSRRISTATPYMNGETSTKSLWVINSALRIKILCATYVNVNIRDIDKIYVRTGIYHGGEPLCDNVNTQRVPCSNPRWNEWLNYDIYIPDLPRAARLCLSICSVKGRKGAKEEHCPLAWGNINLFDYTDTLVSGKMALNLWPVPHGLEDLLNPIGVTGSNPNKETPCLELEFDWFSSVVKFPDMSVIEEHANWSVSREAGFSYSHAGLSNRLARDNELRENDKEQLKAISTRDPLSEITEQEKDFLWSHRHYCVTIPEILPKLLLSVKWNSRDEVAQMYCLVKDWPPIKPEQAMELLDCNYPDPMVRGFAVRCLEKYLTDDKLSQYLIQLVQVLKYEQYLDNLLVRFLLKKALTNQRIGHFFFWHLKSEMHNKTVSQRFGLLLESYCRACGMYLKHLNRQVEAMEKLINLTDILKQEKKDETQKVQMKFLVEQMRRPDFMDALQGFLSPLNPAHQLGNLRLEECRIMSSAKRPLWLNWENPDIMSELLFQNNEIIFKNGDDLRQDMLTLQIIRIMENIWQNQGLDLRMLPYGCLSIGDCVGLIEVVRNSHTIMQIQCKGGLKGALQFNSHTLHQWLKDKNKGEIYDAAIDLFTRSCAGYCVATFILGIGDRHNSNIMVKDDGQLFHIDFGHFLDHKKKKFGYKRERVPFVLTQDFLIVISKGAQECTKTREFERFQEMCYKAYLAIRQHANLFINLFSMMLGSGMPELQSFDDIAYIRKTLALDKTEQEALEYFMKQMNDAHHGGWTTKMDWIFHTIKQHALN
The target of assay [3] is T1, Phosphatidylinositol 4,5-bisphosphate 3-kinase catalytic subunit delta isoform (Homo sapiens, UniProt O00329).
T1 sequence (O00329 whole entry): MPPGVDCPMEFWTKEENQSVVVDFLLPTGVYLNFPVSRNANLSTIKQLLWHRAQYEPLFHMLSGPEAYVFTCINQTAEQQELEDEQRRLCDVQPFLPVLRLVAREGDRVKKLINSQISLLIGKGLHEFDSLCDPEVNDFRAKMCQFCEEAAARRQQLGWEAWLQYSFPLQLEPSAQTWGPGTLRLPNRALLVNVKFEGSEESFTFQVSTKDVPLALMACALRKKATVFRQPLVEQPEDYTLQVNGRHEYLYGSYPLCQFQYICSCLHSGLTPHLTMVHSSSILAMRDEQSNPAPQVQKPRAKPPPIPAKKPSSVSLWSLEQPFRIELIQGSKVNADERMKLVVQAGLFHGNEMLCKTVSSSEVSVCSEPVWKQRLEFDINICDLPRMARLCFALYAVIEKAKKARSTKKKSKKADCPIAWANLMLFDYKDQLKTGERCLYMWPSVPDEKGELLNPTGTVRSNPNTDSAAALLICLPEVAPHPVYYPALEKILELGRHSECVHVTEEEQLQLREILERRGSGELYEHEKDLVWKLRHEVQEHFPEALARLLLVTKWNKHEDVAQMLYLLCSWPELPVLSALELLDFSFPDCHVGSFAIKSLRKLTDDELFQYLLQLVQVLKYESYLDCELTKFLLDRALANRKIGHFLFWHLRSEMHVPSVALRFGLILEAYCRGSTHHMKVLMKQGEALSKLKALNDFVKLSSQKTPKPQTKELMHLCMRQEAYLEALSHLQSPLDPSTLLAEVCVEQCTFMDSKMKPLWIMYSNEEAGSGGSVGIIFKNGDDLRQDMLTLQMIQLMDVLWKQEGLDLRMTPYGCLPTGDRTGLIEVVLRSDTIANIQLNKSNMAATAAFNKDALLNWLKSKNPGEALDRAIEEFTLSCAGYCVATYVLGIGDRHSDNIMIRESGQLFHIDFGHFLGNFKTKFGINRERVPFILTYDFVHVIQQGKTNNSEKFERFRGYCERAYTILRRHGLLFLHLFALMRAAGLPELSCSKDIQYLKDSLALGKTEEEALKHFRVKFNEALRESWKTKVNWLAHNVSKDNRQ
The assay is described as follows: Inhibition of PI3Kdelta by high throughput chemoproteomics binding assay.

Turning to `CC(=O)Nc1nc2ccc(-c3cncc4ccccc34)cn2n1`, the IC50 is 3.16 µM in assay [1], over 100 µM in assay [2] and over 100 µM in assay [3].
With `CNc1nc2ccc(-c3cncc(S(C)(=O)=O)c3)cn2n1`, the half-maximal inhibitory concentration (IC50) in assay [1] is 0.316 µM; in assay [2] it was over 3.98 µM; in assay [3], over 25.1 µM.
Turning to `CC(=O)Nc1nc2ccc(-c3ccncc3)cn2n1`, the IC50 in assay [1] was 1.58 µM; in assay [2], 1.58 µM; in assay [3], over 100 µM.
In the case of `CS(=O)(=O)Nc1nc2ccc(-c3cncc(S(C)(=O)=O)c3)cn2n1`, the half-inhibitory concentration (IC50) in assay [1] is over 39.8 µM; in assay [2], over 100 µM; in assay [3], over 100 µM.
Consider `CCCCNS(=O)(=O)c1cccc(-c2ccc3nc(NC(C)=O)nn3c2)c1`, for which the half-inhibitory concentration (IC50) in assay [1] was 0.2 µM; in assay [2], 10 µM; in assay [3] it was 1.26 µM.
Regarding `CC(=O)Nc1nc2ccc(-c3cccc(S(=O)(=O)NCc4ccccc4)c3)cn2n1`, the half-maximal inhibitory concentration (IC50) in assay [1] is 0.501 µM; in assay [2], over 100 µM; in assay [3], 6.31 µM.
Turning to `COc1ccc(-c2ccc3nc(NC(C)=O)nn3c2)cc1`, the values for the IC50 in assay [1], in assay [2] and in assay [3] were 1 µM, 25.1 µM and 31.6 µM, respectively.
For `CC(=O)Nc1nc2ccc(-c3sc(C)nc3C)cn2n1`, in that order: over 12.6 µM, 6.31 µM and over 100 µM.
On to `CNS(=O)(=O)c1ccc(-c2ccc3nc(NC(C)=O)nn3c2)cc1`, for which the 50% inhibitory concentration (IC50) in assay [1] was over 50.1 µM; in assay [2] it was over 100 µM; in assay [3], over 100 µM.
In the case of `COc1cncc(-c2ccc3nc(NC(C)=O)nn3c2)c1`, the IC50 is 0.0631 µM in assay [1], over 3.98 µM in assay [2] and over 10 µM in assay [3].
Turning to `CN(C)c1nc2ccc(-c3cncc(S(C)(=O)=O)c3)cn2n1`, the IC50 is 3.16 µM in assay [1], over 100 µM in assay [2] and over 100 µM in assay [3].
With `CC(=O)N(C)c1nc2ccc(-c3cccc(S(C)(=O)=O)c3)cn2n1`, the IC50 in assay [1] is over 31.6 µM; in assay [2], over 100 µM; in assay [3], over 100 µM.
For the compound `CC(=O)Nc1nc2ccc(-c3cccc(NS(C)(=O)=O)c3)cn2n1`, the IC50 in assay [1] is 0.316 µM; in assay [2], 5.01 µM; in assay [3], 5.01 µM.
Consider `CC(=O)Nc1nc2ccc(-c3cccc(-c4ccccc4)c3)cn2n1`, for which the 50% inhibitory concentration (IC50) in assay [1] was over 3.98 µM; in assay [2], over 20 µM; in assay [3] it was over 100 µM.
For the compound `CNC(=O)c1cccc(-c2ccc3nc(NC(C)=O)nn3c2)c1`, the concentration for half-maximal inhibition (IC50) in assay [1] is 0.631 µM; in assay [2], over 50.1 µM; in assay [3], over 100 µM.
As for `CNS(=O)(=O)c1cccc(-c2ccc3nc(NC(C)=O)nn3c2)c1`, the IC50 was 0.251 µM in assay [1], over 10 µM in assay [2] and 1 µM in assay [3].
Consider `COc1ccc(-c2ccc3nc(NC(C)=O)nn3c2)cc1S(=O)(=O)NCc1ccccc1`, for which the IC50 in assay [1] is over 100 µM; in assay [2], over 100 µM; in assay [3] it was over 10 µM.
`CC(=O)Nc1nc2ccc(-c3cncnc3)cn2n1`: the results for the IC50 in assay [1], in assay [2] and in assay [3] were 3.98 µM, over 15.8 µM and over 100 µM, respectively.
`CC(=O)Nc1nc2ccc(-c3ccc(S(C)(=O)=O)cc3)cn2n1`: the 50% inhibitory concentration (IC50) in assay [1], in assay [2] and in assay [3] was over 100 µM throughout.
In the case of `COc1ccc(-c2ccc3nc(NC(C)=O)nn3c2)cc1OC`, the 50% inhibitory concentration (IC50) in assay [1] is 0.0398 µM; in assay [2] it was 0.316 µM; in assay [3], 2 µM.
Consider `CC(=O)Nc1nc2ccc(-c3ccsc3)cn2n1`, for which the half-maximal inhibitory concentration (IC50) in assay [1] was 0.398 µM; in assay [2], 0.2 µM; in assay [3], over 20 µM.
For `CC(=O)Nc1nc2ccc(-c3cncc(S(=O)(=O)NCc4ccccc4)c3)cn2n1`, in that order: 0.0398 µM, over 3.16 µM and 3.16 µM.
Consider `CS(=O)(=O)c1cncc(-c2cc(C(F)(F)F)c3nc(N)nn3c2)c1`, for which the half-maximal inhibitory concentration (IC50) in assay [1], in assay [2] and in assay [3] was over 100 µM each time.
